Among the data in patent US5322847A, “Azabenzimidazoles in the treatment of asthma, arthritis and related diseases” (Pfizer Inc., priority 1992, dated 1994) are Kd and ED50 values, retold here.

Broadly, the Kd is the equilibrium constant for the complex coming apart.

Assay [1] has as its target T1, PAF receptor sites on rabbit platelet homogenate (Oryctolagus cuniculus, UniProt G1TEI7).
T1 construct: specific PAF receptor sites on rabbit platelet homogenate; tissue Rockland, Inc., Gilbertsville, Pa; (rabbit blood mixture); host or cells: platelets from blood of normal New Zealand white rabbits, freeze-thawed homogenate
Description: platelet activating factor (PAF) receptor assay. The following applies: radioligand 3H-PAF; constant used in Ki=(IC50)/[1+(L/Kd)]; 25° C., sodium-free buffer +0.25% BSA; read-out: Kd (dissociation constant). It counts as binding. The text has this: The platelet activating factor (PAF) receptor assay tests the ability of a compound to compete with radiolabeled PAF for specific PAF receptor sites on rabbit platelet homogenate.
Five hundred milliliters of a rabbit blood mixture is purchased from Rockland, Inc., Gilbertsville, Pa. The blood mixture is 4 parts blood: 1 part 4% sodium citrate (v/v), and is obtained by heart puncture from normal, approximately 8-month old New Zealand white rabbits. The blood mixture is delivered overnight on wet ice (approx. 8° C.).
The blood mixture is centrifuged at 514 g for 10 minutes. The supernatant platelet-rich plasma is gently laid over Ficoll-Paque (Pharmacia) at a ratio of 9 parts plasma:2 parts Ficoll (v/v) The plasma/Ficoll mixture is centrifuged at 856 g for 20 minutes. […] Protein concentration of the suspension is determined by a Bio-Rad assay. […]
The reaction tubes are incubated at 25° C. for 45 minutes. […] The vial is capped, vortexed and counted for 3H.
Percent specific binding is calculated using the formula
Percent specific binding is graphed as a function of compound concentration. […] Alternatively, the IC50 is calculated using the logistic dose-response (Hill plot) option of the VAX Biostat utility. The inhibitory constant (Ki) is calculated by using the formula […]

Assay [2] relates to PAF lethality in CDl male mice. The experiment in a line: PAF lethality assay. In kind it is in vivo. The following applies: Mus musculus; positive control; oral dosing 45 minutes before i.v. PAF injection; read-out: approximate ED 50. As to the method: To evaluate the compounds of the formula (I) in vivo, they are tested by the so-called PAF lethality assay procedure:
Mice: CDl males, all approximately the same weight (approximately 26 grams), 12 per group.
Vehicle for oral drug dosing: EES (5% ethanol, 5% emulphor, 90% saline). Stored at room temperature.
Drugs: For routine screening at 50 mg/kg, 20 mg drug is dissolved in 4 ml EES, using sonication in a sonicator bath or grinding in a Ten Broeck grinder to dissolve drug if necessary. If solubility is still a problem, the drug is used as a suspension.
Vehicle for i.v. Injection: Saline with 2.5 mg/ml Bovine Serum Albumin (BSA, Sigma #A4378) and 0.05 mg/ml Propranolol (Sigma #PO884). Prepared fresh daily and kept at room temperature.
Platelet Activating Factor (PAF): A […] stock solution is prepared by dissolving 1 mg PAF (Calbiochem #429460) in 0.18 ml ethanol. This is stored at -20° C. and is diluted in vehicle (see above) the day of use. The concentration of PAF used is calibrated so that when injected at 0.1 ml/10 grams body weight, it will kill approximately 80% of untreated controls. This is usually about […] (a 1 to 2034 dilution from stock). […]
Method: 45 minutes before PAF injection, mice are treated orally with drug using 0.1 ml/10 grams body weight. […] Results are expressed as percent mortality as compared to controls. […]

T1 sequence (G1TEI7 1-342): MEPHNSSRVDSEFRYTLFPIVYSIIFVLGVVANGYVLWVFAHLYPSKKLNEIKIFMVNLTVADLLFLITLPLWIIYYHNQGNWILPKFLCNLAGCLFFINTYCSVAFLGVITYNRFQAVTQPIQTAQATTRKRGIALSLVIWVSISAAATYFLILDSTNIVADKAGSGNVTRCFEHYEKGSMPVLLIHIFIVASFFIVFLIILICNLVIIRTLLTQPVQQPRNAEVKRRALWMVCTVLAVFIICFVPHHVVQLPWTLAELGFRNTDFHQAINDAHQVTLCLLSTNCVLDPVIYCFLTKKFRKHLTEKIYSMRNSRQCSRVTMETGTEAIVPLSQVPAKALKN

`CCCCCCCCCCCCCCCCOCC(COP(=O)([O-])OCC[N+](C)(C)C)OC(C)=O` (centres unmarked) [Example 3H-PAF]: the dissociation constant Kd in assay [1] came out at 0.83 nM. Turning to `O=C1CCN(c2ccccc2)N1` [Phenidone], the ED50 in assay [2] was roughly 25 mg/kg.
